The source of these data is US20060160070A1, “Association-based epitome design” (Microsoft Corporation, priority 2004, published 2006).

The target of assay [1] is T1, HLA A*1101 (Homo sapiens, UniProt P04439, A114D/D185E/E176A/F33Y/L180Q/S129P/T187R).
T1 construct: purchased
Put plainly: ITOPIA off-rate assay. The conditions noted are these: 37° C., one-phase exponential decay. It counts as binding.

Assay [2] deals with T2, HLA A*0301 (Homo sapiens, UniProt P04439).
T2 construct: purchased
Put plainly: ITOPIA off-rate assay. It counts as binding. The conditions noted are these: 37° C., one-phase exponential decay.

For assay [3], the target named is T3, HLA A*0201 (Homo sapiens, UniProt P04439, D140Y/D185E/D98H/E176V/E277Q/G131W/G231S/I119V/I121R/I166T/I218V/L300P/L318F/N151K/N90K/P208A/P217A/Q86G/Q94H/R138H/R169H/T345S). Put plainly: ITOPIA off-rate assay. It counts as binding. The conditions noted are these: 37° C., one-phase exponential decay.
Assay [4] has as its target T1, HLA A*1101. Put plainly: Multi-parametric analysis iScore. The conditions noted are these: index integrating t1/2 and ED50. It counts as binding. Also on record: scale not given here. The gist of the method:
(§1)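 iScore = multi-parametric integration of t½ and ED50; indicates peptide–MHC stable complex reconstitution, i.e. overall binding level.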

Assay [5] concerns the target T2, HLA A*0301. In words: Multi-parametric analysis iScore. It counts as binding. Also on record: scale not given here. The conditions noted are these: index integrating t1/2 and ED50. The gist of the method: as §1
Assay [6] addresses T3, HLA A*0201. In words: Multi-parametric analysis iScore. The arrangement: scale not given here. It counts as binding. The conditions noted are these: index integrating t1/2 and ED50. The gist of the method:
as §1

Assay [7] has as its target T4, HLA B*0801 (Homo sapiens, UniProt P01889, A93T/A95T/D138N/E176V/E187T/K202T/Q94N/R180D/S35A/V36M/Y33D/Y91F).
T4 construct: purchased
Put plainly: Multi-parametric analysis iScore. Format: binding. Also on record: scale not given here. The conditions noted are these: index integrating t1/2 and ED50. In short, it runs like this: as §1

Assay [8] concerns the target T5, HLA A*2402 (Homo sapiens, UniProt P04439, D101N/D140Y/D185E/E176V/E190D/F33S/G103R/G107R/I119L/I121M/I306V/K335N/L105A/L180Q/L300P/N151K/N90K/Q86E/Q94H/R106L/R138H/R89G/T104I/T345S/V100E/W191G/Y123F). Put plainly: Multi-parametric analysis iScore. The arrangement: scale not given here. Format: binding. The conditions noted are these: index integrating t1/2 and ED50. The gist of the method: as §1

In assay [9] the target is T6, HLA A*0101 (Homo sapiens, UniProt P04439, A114D/A174V/A182V/D101N/D185E/E176A/E190D/L180R/Q94H/R68K/S129P/T187R/V100A/V91M/W191G).
T6 construct: purchased
In words: Multi-parametric analysis iScore. Format: binding. The arrangement: scale not given here. The conditions noted are these: index integrating t1/2 and ED50. In short, it runs like this:
as §1

The target in assay [10] is T7, HLA B*1501 (Homo sapiens, UniProt P01889, A329T/A93T/A95T/C349S/D201E/D98Y/E187L/E204Q/E69M/E70A/K202T/N87E/Q94N/R155S/R180W/S121R/S35A/S48A/V306I/V36M/Y140S/Y91S).
T7 construct: purchased
In words: Multi-parametric analysis iScore. It counts as binding. The arrangement: scale not given here. The conditions noted are these: index integrating t1/2 and ED50. In short, it runs like this: as §1

In assay [11] the target is T8, HLA B*0702 (Homo sapiens, UniProt P01889).
T8 construct: purchased
In words: Multi-parametric analysis iScore. It counts as binding. The arrangement: scale not given here. The conditions noted are these: index integrating t1/2 and ED50. In short, it runs like this: as §1

The target of assay [12] is T1, HLA A*1101. Put plainly: ITOPIA peptide binding assay. The conditions noted are these: 1.11×10^−4M of peptide. In short, it runs like this: (§2)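 MHC-coated microtiter plates; peptide 1.11×10^−4M; standardized optimal binding conditions; control peptide alongside at same conc.; ELISA, duplicates; value = % positive control binding.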
For assay [13], the target named is T2, HLA A*0301. Put plainly: ITOPIA peptide binding assay. The conditions noted are these: 1.11×10^−4M of peptide. The gist of the method:
as §2

Assay [14] deals with T3, HLA A*0201. In words: ITOPIA peptide binding assay. The conditions noted are these: 1.11×10^−4M of peptide. The gist of the method:
as §2

Assay [15] deals with T4, HLA B*0801. In words: ITOPIA peptide binding assay. The conditions noted are these: 1.11×10^−4M of peptide. The gist of the method:
as §2

The target of assay [16] is T5, HLA A*2402. In words: ITOPIA peptide binding assay. The conditions noted are these: 1.11×10^−4M of peptide. In short, it runs like this:
as §2

For assay [17], the target named is T6, HLA A*0101. In words: ITOPIA peptide binding assay. The conditions noted are these: 1.11×10^−4M of peptide. The gist of the method: as §2
For assay [18], the target named is T7, HLA B*1501. Put plainly: ITOPIA peptide binding assay. The conditions noted are these: 1.11×10^−4M of peptide. In short, it runs like this: as §2
Assay [19] deals with T8, HLA B*0702. Put plainly: ITOPIA peptide binding assay. The conditions noted are these: 1.11×10^−4M of peptide. In short, it runs like this: as §2
The subject of assay [20] is target cells. The conditions noted are these: in vitro; compared with consensus epitope; cited from earlier work.

Regarding KLAGRWPVK [compound 71], the “A*1101 t1/2” value in assay [1] was 2.6 h. Also, in [2], the “A*0301 t1/2” value was 4.6 h. The “A*0201 t1/2” value in [3] was determined as 1.3 h. Moreover, the iScore was determined as 0.834 in assay [4]; 0.606 in assay [5]; 0.084 in assay [6]; 0 in assay [7]; 0 in [8]; 0 in assay [9]. In addition, the iScore in assay [10] and in assay [11] was 0 throughout. Besides, the “level of binding, percent of positive control peptide binding” value is 160% of positive control in [12]; 114% of positive control in [13]; 26% of positive control in assay [14]; 4% of positive control in [15]; 11% of positive control in [16]; 0% of positive control in assay [17]. Further, the “level of binding, percent of positive control peptide binding” value in assay [18] is listed as 2% of positive control; in [19] it was 0% of positive control.
In the case of KLAGRWPVT [compound 157], the “A*1101 t1/2” value in assay [1] was 1.6 h. Further, in assay [3], the “A*0201 t1/2” value worked out at 1.1 h. For the same sequence, the iScore was determined as 0.039 in assay [4]; 0 in assay [5]; 0.129 in assay [6]; 0 in assay [7]; 0 in assay [8]; 0 in assay [9]. Besides, the iScore in assay [10] and in assay [11] was 0 each time. The “level of binding, percent of positive control peptide binding” value is on record as 19% of positive control in assay [12]; 9% of positive control in assay [13]; 51% of positive control in [14]; 4% of positive control in assay [15]; 8% of positive control in [16]; 2% of positive control in [17]. The “level of binding, percent of positive control peptide binding” value in assay [18] is 6% of positive control; in [19], 3% of positive control.
In the case of TAFTIPST, in assay [20], the “increase in the peptide concentration required to sensitize target cells for 50% lysis (SD50) by CTLs” value is “hundred-fold increase”.
